# Results taken from patent US9241488B2, “Azole derivative, method for producing azole derivative, and intermediate compound” (KUREHA CORPORATION, priority 2011, dated 2016).
# Where two headings read alike, the source gives them in different places.
# What was measured:
# [1] = system: Wheat pink snow mold (Microdochium nivale); test: Anti-bacterial effect on various microorganisms (plate medium), M.n; type: cell-based
# [2] = system: Wheat eye spot (Pseudocercoporella herpotrichoides); test: Anti-bacterial effect on various microorganisms (plate medium), P.h; type: cell-based
# [3] = system: Sclerotinia rot (Sclerotinia sclerotiorum); test: Anti-bacterial effect on various microorganisms (plate medium), S.s; type: cell-based
# [4] = system: Barley loose smut (Ustilago nuda); test: Anti-bacterial effect on various microorganisms (plate medium), U.n; type: cell-based
# [5] = system: Rice bakanae disease (Giberella fujikuroi); test: Anti-bacterial effect on various microorganisms (plate medium), G.f; type: cell-based
# [6] = system: wheat-brown-rust-causing microorganisms; test: Controlling effect on wheat brown rust (spray, pot test); type: in vivo, Puccinia recondita; details: 1 mg/L sprayed at 1,000 L/ha, wheat NORIN No. 61, 9 to 14 days after inoculation
# Experimental: Onto a wheat plant (cultivar: NORIN No. 61) grown to the two-leaf stage with use of a square plastic pot (6 cm×6 cm), a wettable formulation such as Formulation Example 1 which was diluted and suspended in water at a concentration of 1 mg/L was sprayed at a rate of 1,000 L/ha. The sprayed leaves were air-dried, and inoculated with spore suspension of wheat-brown-rust-causing microorganisms (adjusted at 200 spores/vision, […] was added at 60 ppm) by spraying, and kept at 25° C. and a high humidity for 48 hours. Thereafter, the plant was kept in a greenhouse. Nine to fourteen days after inoculation, the wheat brown rust lesion degree was evaluated. The protective value was calculated by the following equation. Protective value (%)=(1-mean lesion degree in sprayed plot/mean lesion degree in unsprayed plot)×100 [table] [table]
# [7] = system: Cucumber fusarium wilt (Fusarium oxysporum); test: Anti-bacterial effect on various microorganisms (plate medium), F.c; type: cell-based
# [8] = system: Wheat fusarium blight (Fusarium graminearum); type: cell-based
# [9] = system: wheat brown rust-causing microorganisms; test: Controlling effect on wheat brown rust caused by seed treatment (pot test); type: in vivo, Puccinia recondita; details: 2 mg compound per 1 g wheat seeds, inoculated 21 days after seeding, evaluated 14 days after inoculation
# Experimental: An efficacy against wheat brown rust was evaluated by performing a pot test. […] The pots were kept in a greenhouse with supplying water underneath. Twenty one days after the seeding, wheat brown rust-causing microorganisms was inoculated, and the pots were stored in a humidity chamber for 2 days. The pots were kept again in a greenhouse with supplying water underneath. Fourteen days after the inoculation, a lesion degree was evaluated, and a protective value was calculated. The protective value was calculated with use of the following formula, and was defined as a wheat brown rust protective value. Protective value=(1−lesion degree in treated plot/lesion degree in untreated plot)×100(%)
# [10] = system: Rice bacterial seeding blight (Rhizopus oryzae); test: Anti-bacterial effect on various microorganisms (plate medium), R.o; type: cell-based
# [11] = system: Wheat Septoria nodorum blotch microorganism (Phaeosphaeria nodorum); test: Anti-bacterial effect on various microorganisms (plate medium), P.n; type: cell-based
# [12] = system: Alternaria blotch (Alternaria alternata); test: Anti-bacterial effect on various microorganisms (plate medium), A.m; type: cell-based
# [13] = system: Barley leaf blotch (Rhynchosporium secalis); test: Anti-bacterial effect on various microorganisms (plate medium), R. sec; type: cell-based
# [14] = system: wheat leaf blight-causing microorganisms; test: Anti-bacterial effect on wheat leaf blight-causing microorganisms (PDA plate, mycelial growth inhibition); type: cell-based, Septoria tritici; details: 1.25 mg/L in PDA plate medium, 25° C., 14 days
# Experimental: In Test Examples, an anti-bacterial effect of a compound in accordance with the present invention on the wheat leaf blight-causing microorganisms was tested, and was compared with the anti-bacterial effect of a comparative compound (1).
# A dimethyl sulfoxide solution (0.6 ml) containing a compound in accordance with the present invention was added to a PDA medium (potato dextrose agar medium) (60 ml) having about 60° C., and the resultant mixture was mixed thoroughly in a 100-ml conical flask. The mixture was poured into a dish, and was solidified. […]
# On the other hand, a subject microorganism previously cultured on a plate medium was cut out with use of a cork borer whose diameter was 4 mm, and the wheat leaf blight-causing microorganism on the plate medium thus cut out was inoculated to the chemical-containing plate medium described above. After such inoculation, the chemical-containing plate medium was incubated at 25° C. for 14 days, and then diameters of its flora were measured. A % mycelial growth inhibition was calculated with use of the formula. R=100(dc−dt)/dc (where R=% mycelial extension inhibition, dc=flora diameter in untreated plate, dt=flora diameter in treated plate)
# The results obtained as described above were evaluated on a five-point scale according to the following criteria.
# • 5: % Mycerial growth inhibition of 80% or higher • 4: % Mycerial growth inhibition of less than 80 to 60% or higher • 3: % Mycerial growth inhibition of less than 60 to 40% or higher • 2: % Mycerial growth inhibition of less than 40 to 20% or higher • 1: % Mycerial growth inhibition of less than 20%
# [15] = system: Rice blast (Pyricularia oryzae); type: cell-based
# [16] = system: Gray mold (Botritis cinerea); test: Anti-bacterial effect on various microorganisms (plate medium), B.c; type: cell-based
# [17] = system: Swollen rice seedling (Rhizopus oryzae); test: Anti-bacterial effect of V′ compounds on various microorganisms (plate medium), R.o; type: cell-based; details: 5 mg/L
# [18] = system: Snow mold of winter wheat (Microdochium nivale); test: Anti-bacterial effect of V′ compounds on various microorganisms (plate medium), M.n; type: cell-based; details: 5 mg/L
# [19] = system: Wheat Septoria nodorum blotch microorganism (Phaeosphaeria nodorum); test: Anti-bacterial effect of V′ compounds on various microorganisms (plate medium), P.n; type: cell-based; details: 5 mg/L
# [20] = system: Barley stripe (Pyrenophora graminea); test: Anti-bacterial effect of V′ compounds on various microorganisms (plate medium), P.g; type: cell-based; details: 5 mg/L
# [21] = system: Wheat leaf blight (Septoria tritici); test: Anti-bacterial effect of V′ compounds on various microorganisms (plate medium), S.t; type: cell-based; details: 5 mg/L
# [22] = system: Barley leaf blotch (Rhynchosporium secalis); test: Anti-bacterial effect of V′ compounds on various microorganisms (plate medium), R. sec; type: cell-based; details: 5 mg/L
# [23] = system: Rice blast (Pyricularia oryzae); type: cell-based; details: 5 mg/L
# [24] = system: G.g; test: Anti-bacterial effect of V′ compounds on various microorganisms (plate medium), G.g; type: cell-based; details: 5 mg/L
Compound,Growth inhibition grade M.n ([1]; 1.25 mg/L),Growth inhibition grade M.n ([1]; 5 mg/L),Growth inhibition grade P.h ([2]; 1.25 mg/L),Growth inhibition grade P.h ([2]; 5 mg/L),Growth inhibition grade S.s ([3]; 1.25 mg/L),Growth inhibition grade S.s ([3]; 5 mg/L),Growth inhibition grade U.n ([4]; 1.25 mg/L),Growth inhibition grade U.n ([4]; 5 mg/L),Growth inhibition grade G.f ([5]; 1.25 mg/L),Growth inhibition grade G.f ([5]; 5 mg/L),Protective value [6],Growth inhibition grade F.c ([7]; 1.25 mg/L),Growth inhibition grade F.c ([7]; 5 mg/L),Growth inhibition grade F.g ([8]; 1.25 mg/L),Growth inhibition grade F.g ([8]; 5 mg/L),Growth inhibition grade R.o ([10]; 1.25 mg/L),Growth inhibition grade R.o ([10]; 5 mg/L),Growth inhibition grade P.n ([11]; 1.25 mg/L),Growth inhibition grade P.n ([11]; 5 mg/L),Growth inhibition grade A.m ([12]; 1.25 mg/L),further results
"COC[C@]1(CCl)CC[C@@H](Cc2ccc(Cl)cc2)[C@]1(O)Cn1cncn1 (racemic) [Compound I-16a, (1RS,2RS,5SR)-5-(4-chlorobenzyl)-2-chloromethyl-2-methoxymethyl-1H-[1,2,4]triazole-1-ylmethylcyclopentanol]",5 (% Mycerial growth inhibition of 80% or higher),5 (% Mycerial growth inhibition of 80% or higher),4 (% Mycerial growth inhibition of less than 80 to 60% or higher),5 (% Mycerial growth inhibition of 80% or higher),5 (% Mycerial growth inhibition of 80% or higher),5 (% Mycerial growth inhibition of 80% or higher),5 (% Mycerial growth inhibition of 80% or higher),5 (% Mycerial growth inhibition of 80% or higher),5 (% Mycerial growth inhibition of 80% or higher),5 (% Mycerial growth inhibition of 80% or higher),4 (61 to 80),5 (% Mycerial growth inhibition of 80% or higher),5 (% Mycerial growth inhibition of 80% or higher),5 (% Mycerial growth inhibition of 80% or higher),5 (% Mycerial growth inhibition of 80% or higher),5 (% Mycerial growth inhibition of 80% or higher),5 (% Mycerial growth inhibition of 80% or higher),5 (% Mycerial growth inhibition of 80% or higher),5 (% Mycerial growth inhibition of 80% or higher),4 (% Mycerial growth inhibition of less than 80 to 60% or higher),wheat brown rust protective value [9]: 100%; Growth inhibition grade A.m ([12]; 5 mg/L): 5 (% Mycerial growth inhibition of 80% or higher); Growth inhibition grade R. sec ([13]; 1.25 mg/L): 5 (% Mycerial growth inhibition of 80% or higher); Growth inhibition grade R. sec ([13]; 5 mg/L): 5 (% Mycerial growth inhibition of 80% or higher); Growth inhibition grade [14]: 5 (% Mycerial growth inhibition of 80% or higher); Growth inhibition grade P.o ([15]; 1.25 mg/L): 5 (% Mycerial growth inhibition of 80% or higher); Growth inhibition grade P.o ([15]; 5 mg/L): 5 (% Mycerial growth inhibition of 80% or higher); Growth inhibition grade B.c ([16]; 1.25 mg/L): 5 (% Mycerial growth inhibition of 80% or higher); Growth inhibition grade B.c ([16]; 5 mg/L): 5 (% Mycerial growth inhibition of 80% or higher)
"CCOC[C@]1(CCl)CC[C@@H](Cc2ccccc2)[C@]1(O)Cn1cncn1 (racemic) [Compound I-234, (1RS,2RS,5SR)-5-benzyl-2-chloromethyl-2-ethoxymethyl-1H-[1,2,4]triazole-1-ylmethylcyclopentanol]",5 (% Mycerial growth inhibition of 80% or higher),5 (% Mycerial growth inhibition of 80% or higher),4 (% Mycerial growth inhibition of less than 80 to 60% or higher),5 (% Mycerial growth inhibition of 80% or higher),5 (% Mycerial growth inhibition of 80% or higher),5 (% Mycerial growth inhibition of 80% or higher),5 (% Mycerial growth inhibition of 80% or higher),5 (% Mycerial growth inhibition of 80% or higher),5 (% Mycerial growth inhibition of 80% or higher),5 (% Mycerial growth inhibition of 80% or higher),4 (61 to 80),5 (% Mycerial growth inhibition of 80% or higher),5 (% Mycerial growth inhibition of 80% or higher),5 (% Mycerial growth inhibition of 80% or higher),5 (% Mycerial growth inhibition of 80% or higher),5 (% Mycerial growth inhibition of 80% or higher),5 (% Mycerial growth inhibition of 80% or higher),5 (% Mycerial growth inhibition of 80% or higher),5 (% Mycerial growth inhibition of 80% or higher),4 (% Mycerial growth inhibition of less than 80 to 60% or higher),Growth inhibition grade A.m ([12]; 5 mg/L): 5 (% Mycerial growth inhibition of 80% or higher); Growth inhibition grade R. sec ([13]; 1.25 mg/L): 5 (% Mycerial growth inhibition of 80% or higher); Growth inhibition grade R. sec ([13]; 5 mg/L): 5 (% Mycerial growth inhibition of 80% or higher); Growth inhibition grade [14]: 5 (% Mycerial growth inhibition of 80% or higher); Growth inhibition grade P.o ([15]; 1.25 mg/L): 5 (% Mycerial growth inhibition of 80% or higher); Growth inhibition grade P.o ([15]; 5 mg/L): 5 (% Mycerial growth inhibition of 80% or higher); Growth inhibition grade B.c ([16]; 1.25 mg/L): 5 (% Mycerial growth inhibition of 80% or higher); Growth inhibition grade B.c ([16]; 5 mg/L): 5 (% Mycerial growth inhibition of 80% or higher)
"CC1(C)OCC2(CCC(Cc3ccc(Cl)cc3)C2(O)Cn2cncn2)CO1 (stereo not drawn) [Compound V′-a-cis, 2-(4-chlorobenzyl)-8,8-dimethyl-1-[1,2,4]triazole-1-ylmethyl-7,9-dioxaspiro[4,5]decane-1-ol]",,,,,,,,,,,,,,,,,,,,,"Anti-bacterial effect index against various microorganisms R.o [17]: 5 (% Mycerial growth inhibition of 80% or higher); Anti-bacterial effect index against various microorganisms M.n [18]: 5 (% Mycerial growth inhibition of 80% or higher); Anti-bacterial effect index against various microorganisms P.n [19]: 5 (% Mycerial growth inhibition of 80% or higher); inhibition at 1.25 µg/mL ([14]; 336 h, read-out: Growth inhibition grade): > 80%; Anti-bacterial effect index against various microorganisms P.g [20]: 5 (% Mycerial growth inhibition of 80% or higher); Anti-bacterial effect index against various microorganisms S.t [21]: 5 (% Mycerial growth inhibition of 80% or higher); Anti-bacterial effect index against various microorganisms R. sec [22]: 5 (% Mycerial growth inhibition of 80% or higher); Anti-bacterial effect index against various microorganisms P.o [23]: 5 (% Mycerial growth inhibition of 80% or higher); Anti-bacterial effect index against various microorganisms G.g [24]: 5 (% Mycerial growth inhibition of 80% or higher)"
